Assay results from patent publication US11273217B2, “Cancer treatment composition combining anti-CD26 antibody and other anticancer agent” (Y's AC Co., Ltd., priority 2015, dated 2022).

Assays:
H2452 cells = assay: Boyden chamber invasion assay, H2452; type: cell-based; conditions: cisplatin 0, 3, or 10 μM and YS110 0, 10, or 20 μg/ml; 24 hours
Method: MESO1 cells or H2452 cells (2.5×10^4 cells/well) were inoculated to a Boyden chamber. One hour later, cisplatin (5, 10, or 30 μM) or pemetrexed (1, 10, or 30 μM) was added thereto (n=5), followed by Boyden chamber invasion assay. 24 hours after the cell inoculation, invasive cells were stained with Diff-Quik-staining kit. Significant difference was tested by two-tailed t-test (vs Cont).
(§1) MESO1 cells or H2452 cells (2.5×10^4 cells/well) were inoculated to a Boyden chamber. One hour later, the combination of cisplatin (0, 3, or 10 μM) and pemetrexed (0, 10, or 30 μM) was added thereto (n=5), followed by Boyden chamber invasion assay. 24 hours after the cell inoculation, invasive cells were stained with Diff-Quik-staining kit. Significant difference was tested by two-tailed t-test (vs Cont).
as §1, with “H2452” for “MESO1 cells or H2452”, “YS110” for “pemetrexed”, “20 μg/ml)” for “30 μM)”, “Cont). Next, the interaction of YS110 with cisplatin-pemetrexed concomitant use was studied. The interaction was analyzed by two-way ANOVA.” for “Cont).”

H226 = assay: In vivo growth of epithelioid mesothelioma cell H226 in SCID mice (tumor weight); conditions: YS110 10 mg/kg, gemcitabine 20 mg/kg, intraperitoneal, days 2 and 4; day 7
Method: H226 (3.8×10^5 cells/animal) was subcutaneously transplanted to the backs of female SCID mice. The day of transplantation was defined as day 0. YS110 (10 mg/kg), gemcitabine (20 mg/kg), or YS110 (10 mg/kg)+gemcitabine (20 mg/kg) was intraperitoneally administered to the mice twice (days 2 and 4) (n=6). At day 7, their tumors were excised, and the tumor weights were measured. Significant difference was tested by two-tailed t-test (vs Cont). The interaction between YS110 and gemcitabine used concomitantly was analyzed by two-way ANOVA.

YS110: humanized anti-CD26 antibody designed based on anti-CD26 mouse antibody 14D10; SEQ ID NO: 17 and 18
effect of YS110 on the cell invasion inhibitory action of cisplatin-pemetrexed (H2452 cells): synergistically potentiated | inhibitory effect (tumor weight) (H226): 34%
